We go through one molecule from EP0466251A1, “Elfamycin-resistant mutants” (priority 1990, dated 1992).

In one test the target is T1, SrEF-Tu mutant A378T (Streptomyces ramocissimus, UniProt P29542, A379T).
T1 construct: made in house; host or cells: E. coli PM1455
Nature of the test: in vitro poly(U) directed poly(phe) synthesis. Format: biochemical, S. ramocissimus. Here is the method: The sensitivity of SrEF-Tu mutants A378V and A378T to elfamycin was tested by in vitro studies. Both parent and mutant S. ramocissimus EF-Tu, after transformation of the respective cloned genes, were expressed in an E. coli strain encoding an elfamycin resistant EF-Tu. Cell-free extracts of these transformants were subsequently tested for elfamycin sensitivity of the translation apparatus, using a variation on the procedure described by C. Glöckner and H. Wolf (cited above). […] The parent SrEF-Tu reached 50% residual activity already at 1.6 mg/l. […]
Plasmids pUSrT1-1, pUSrT1V-1 and pUSrT1T-1 were transformed to E. coli PM1455 (tufA, tufB::Mu, rpoB, recA56; P. van der Meide et al., Eur. J. Biochem. 130 (1983) 409-417); this strain has only one active tuf gene, which encodes an elfamycin resistant EF-Tu. […] The first 4 fractions having absorbance at 260 nm were pooled. […]
At 0°C an incubation mixture was prepared consisting of 40 mM Tris-acetate pH 7.6, 10 mM Mg-acetate, 60 mM NH₄Cl, 5 mM β-mercaptoethanol, 1 mM ATP, 0.025 mM GTP, 2.5 mM phosphoenolpyruvate, 0.25 µg/ml pyruvate kinase, 0.8 mg/ml tRNA, 0.1 mg/ml poly(U), 95 µM phenylalanine, and 3 µCi/ml ³H-phenylalanine (57 Ci/mmol). […] Incorporation of ³H-phenylalanine was analyzed in a liquid scintillation counter. […]

Test [1] relates to S. ramocissimus R1V. Nature of the test: germination and growth of spores on solid medium (HI-agar). It counts as cell-based. Also noted: key to Germination and growth of spores: +++ = good growth; ++ = slow growth; + = very slow growth; - = no growth. As to the method:
(§1) Similar results were obtained on solid medium (HI-agar, Difco) containing 0 to 1 g/l mocimycin; spores from S. ramocissimus R1V and S. ramocissimus CBS 190.69 were diluted such that approximately 200 colony forming units were applied to each agar plate. Incubation of the plates was at 30°C for 5 days. For the control strain S. ramocissimus CBS 190.69 no colonies appeared above 0.1 g/l mocimycin; on the contrary, spores of S. ramocissimus strain R1V quantitatively were able to germinate and form colonies at least up to 0.75 g/l.

Test [2] deals with S. ramocissimus CBS 190.69. Described as above. Also noted: key to Germination and growth of spores: +++ = good growth; ++ = slow growth; + = very slow growth; - = no growth. It counts as cell-based. Here is the method:
as §1

The subject of test [3] is S. ramocissimus R1V. In words: regeneration of protoplasts on regeneration medium. Format: cell-based. The following applies: for Regeneration efficiency of protoplasts: regeneration medium. As to the method:
Spores were isolated essentially as described by D. Hopwood et al. (cited above), and used to inoculate YMG medium (yeast extract 4 g/l, malt extract 10 g/l, glucose 4 g/l) containing 0.5% glycine. Protoplasts were obtained by lysozyme treatment of this culture, transformed as described by D. Hopwood et al. (cited above) with plasmid pMTST1VΔS and pMTST1TΔS. Subsequently the transformed protoplasts were spread on regeneration medium, and incubated at 30°C. Regeneration medium was prepared by mixing equal volumes of sporulation medium and stabilizer medium. Stabilizer medium consisted of NaNO₃ 3 g/l, K₂HPO₄.3H₂O 0.085 g/l, K₂SO₄ 0.25 g/l, FeSO₄.7H₂O 0.01 g/l, trace element solution 0.1 ml, Tris 3.03 g/l, NaCl 2.92 g/l, sucrose 103 g/l, glucose 10 g/l, MgCl₂.6H₂O 5 g/l, CaCl₂.2H₂O 1.5 g/l, and agar 20 g/l, adjusted to pH 7.2 with 4N HCl. […] After 24 hrs the regeneration plates were overlaid with 3 ml soft agar containing 20 µg/ml thiostrepton (D. Hopwood et al., cited above) and incubated at 30°C for 5 days.
Another test was carried out using protoplasts of strains S. ramocissimus CBS 190.69 and S. ramocissimus R1V, prepared as described in Example 7. […] Thus protoplasts were plated on regeneration medium (Example 7) containing 0 to 0.1 g/l mocimycin. Under these conditions protoplasts of S. ramocissimu CBS 190.69 were able to regenerate only at mocimycin concentrations below 0.02 g/l; regeneration of S. ramocissimus R1V protoplasts in the presence of up to 0.1 g/l mocimycin occurred with the same efficiency as without mocimycin (Table 2).

Where [4] appears, read: approximately 200 colony forming units per plate, 30°C for 5 days.

T1 sequence (P29542 whole entry A379T): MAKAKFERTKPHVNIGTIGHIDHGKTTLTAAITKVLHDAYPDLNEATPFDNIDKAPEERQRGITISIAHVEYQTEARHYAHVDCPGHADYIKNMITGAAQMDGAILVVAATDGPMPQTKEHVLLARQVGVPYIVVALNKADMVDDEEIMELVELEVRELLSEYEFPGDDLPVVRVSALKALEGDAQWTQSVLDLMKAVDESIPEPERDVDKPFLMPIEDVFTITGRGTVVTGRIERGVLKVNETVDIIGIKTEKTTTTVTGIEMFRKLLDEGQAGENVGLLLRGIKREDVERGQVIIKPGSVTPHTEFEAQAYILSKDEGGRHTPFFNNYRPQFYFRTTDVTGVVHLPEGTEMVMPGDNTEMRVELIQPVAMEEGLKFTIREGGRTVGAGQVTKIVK

In the case of `C/C=C\C=C\[C@@H]1O[C@](O)([C@H](CC)C(=O)NC/C=C/C=C(\C)[C@@H](OC)[C@H](C)[C@@H]2O[C@H](/C=C/C=C/C=C(\C)C(=O)c3c(O)cc[nH]c3=O)[C@H](O)[C@@H]2O)[C@H](O)[C@H](O)C1(C)C` [mocimycin, Mocimycin], on SrEF-Tu mutant A378T (16 mg/l mocimycin, period of 40 minutes), the “efficiency of ³H-phenylalanine incorporation compared to the parallel incubation without mocimycin” value turned out to be 80%. For the same molecule, on SrEF-Tu mutant A378T (S-30 extract of E. coli PM1455 transformant, reaction time 10 minutes), the “mocimycin concentration at a residual activity of 50% in the in vitro poly(phe) synthesis” value turned out to be 160 mg/L. For the same molecule, in the test with S. ramocissimus R1V [1] (setting [4]), the “mocimycin concentration up to which spores were able to germinate and form colonies” value is not below 0.75 g/L. For the same molecule, the “Germination and growth of spores” value is listed as “+++” in the test with S. ramocissimus R1V [1] (mocimycin 0.10 g/l); “+++” in the test with S. ramocissimus R1V [1] (mocimycin 0.20 g/l); “++” with S. ramocissimus R1V [1] (mocimycin 0.40 g/l); “++” with S. ramocissimus R1V [1] (mocimycin 0.60 g/l); “+” in the test with S. ramocissimus R1V [1] (mocimycin 0.75 g/l); “-” in the test with S. ramocissimus R1V [1] (mocimycin 1.0 g/l). The “Germination and growth of spores” value is given as “+” in test [2] (mocimycin 0.10 g/l); “-” in test [2] (mocimycin 0.20 g/l); “-” in test [2] (mocimycin 0.40 g/l); “-” in test [2] (mocimycin 0.60 g/l); “-” in test [2] (mocimycin 0.75 g/l); “-” in test [2] (mocimycin 1.0 g/l). The “mocimycin concentration above which no colonies appeared” value in test [2] (setting [4]) is on record as “above 0.1 g/l”. For the same molecule, the “mocimycin concentration up to which regeneration occurred with the same efficiency as without mocimycin” value in the test on S. ramocissimus R1V [3] (regeneration medium containing 0 to 0.1 g/l mocimycin) is listed as “up to 0.1 g/l”. In addition, the “Regeneration efficiency of protoplasts” value with S. ramocissimus R1V [3] (mocimycin 0.01 g/l) is given as 100%; in the test with S. ramocissimus R1V [3] (mocimycin 0.02 g/l) it was 100%; in the test on S. ramocissimus R1V [3] (mocimycin 0.04 g/l), 100%; with S. ramocissimus R1V [3] (mocimycin 0.07 g/l) it was 90%; in the test with S. ramocissimus R1V [3] (mocimycin 0.10 g/l), 80%.
